Laboratory results from ChEMBL document CHEMBL3817764, “Pyrimidine-based antimalarials: design strategies and antiplasmodial effects” (Medchemcomm, 2016).

Tests used:
[1] = test system: Plasmodium falciparum; experiment: Antiplasmodial activity against chloroquine-resistant Plasmodium falciparum W2 by NBT assay; format: functional, organism-based
[2] = test system: Plasmodium falciparum; experiment: Antiplasmodial activity against chloroquine-sensitive Plasmodium falciparum D6 by NBT assay; format: functional, organism-based
[3] = Oral bioavailability in Sprague-Dawley rat plasma by LC/MS analysis; format: ADME, organism-based
[4] = target: Dihydroorotate dehydrogenase (quinone), mitochondrial (Homo sapiens, UniProt Q02127); experiment: Inhibition of human DHODH
Chain of Dihydroorotate dehydrogenase (quinone), mitochondrial (Q02127 whole entry): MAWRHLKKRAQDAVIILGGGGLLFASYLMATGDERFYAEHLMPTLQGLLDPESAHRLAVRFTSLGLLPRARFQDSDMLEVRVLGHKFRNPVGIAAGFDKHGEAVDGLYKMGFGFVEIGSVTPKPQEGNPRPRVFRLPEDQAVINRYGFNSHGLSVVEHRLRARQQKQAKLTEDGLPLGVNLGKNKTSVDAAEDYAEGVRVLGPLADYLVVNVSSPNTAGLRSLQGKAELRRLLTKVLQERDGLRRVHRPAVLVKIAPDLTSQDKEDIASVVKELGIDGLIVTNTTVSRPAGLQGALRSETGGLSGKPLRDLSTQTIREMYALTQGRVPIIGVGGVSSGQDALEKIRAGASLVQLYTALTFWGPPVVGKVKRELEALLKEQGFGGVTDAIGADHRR

[5] = test system: Plasmodium berghei; experiment: Antiplasmodial against Plasmodium berghei in rat malaria model assessed as parasite suppression at 30 mg/kg measured after 4 days; format: functional
[6] = test system: Calf thymus DNA; experiment: Binding affinity to calf thymus DNA assessed as induction of hypochromic shift in intensity of quinoline absorption band at 331 nm at 7.1 uM; format: nucleic-acid assay; details: Bos taurus
[7] = test system: Calf thymus DNA; experiment: Binding affinity to calf thymus DNA assessed as induction of red shift at 7.1 uM; format: nucleic-acid assay; details: Bos taurus
[8] = test system: Calf thymus DNA; experiment: Binding affinity to calf thymus DNA assessed as melting temperature (reference value: 59.5 degC); format: nucleic-acid assay; details: Bos taurus
[9] = test system: Plasmodium falciparum; experiment: Antimalarial activity against chloroquine-resistant Plasmodium falciparum W2 assessed as plasmodial LDH activity; format: functional, organism-based
[10] = test system: Plasmodium falciparum; experiment: Antimalarial activity against chloroquine-sensitive Plasmodium falciparum D6 assessed as plasmodial LDH activity; format: functional, organism-based
[11] = test system: Plasmodium falciparum; experiment: Antimalarial activity against Plasmodium falciparum V1/S harboring DHFR N51I+C59R+S108N+I164L quadruple mutant assessed as reduction parasite growth by [3H]-hypoxanthine incorporation assay; format: functional, organism-based

| Structure (SMILES) | IC50 [1] | IC50 [2] | further results |
| --- | --- | --- | --- |
| Clc1ccc2c(NCCCNc3nc(Cl)cc(Cl)n3)ccnc2c1 | 16 nM | 6 nM | – |
| CC1(C)N=C(N)N=C(N)N1OCCCOc1cc(Cl)c(Cl)cc1Cl.Cl | – | – | bioavailability [3]: 1% |
| CN1CCN(c2ccnc(NCCCNc3ccnc4cc(Cl)ccc34)n2)CC1 | 16 nM | 6 nM | – |
| Cc1cc(N2CCN(C)CC2)nc(NCCCCNc2ccnc3cc(Cl)ccc23)n1 | 16 nM | 6 nM | – |
| CCN1CCN(c2cc(C)nc(NCCCCNc3ccnc4cc(Cl)ccc34)n2)CC1 | 16 nM | 6 nM | – |
| Cc1cc(N2CCOCC2)nc(NCCNc2ccnc3cc(Cl)ccc23)n1 | 16 nM | 6 nM | – |
| Cc1cc(Nc2ccc3ccccc3c2)n2ncnc2n1 | – | – | IC50 [4]: > 200000 nM |
| Clc1ccc2c(NCCNc3ccnc(N4CCOCC4)n3)ccnc2c1 | – | – | Activity [5]: 93.9% |
| Clc1ccc2c(NCCNc3nccc(Cl)n3)ccnc2c1 | 16 nM | 6 nM | – |
| Clc1ccc2c(NCCNc3nccc(N4CCOCC4)n3)ccnc2c1 | 16 nM | 6 nM | – |
| CCN1CCN(c2ccnc(NCCNc3ccnc4cc(Cl)ccc34)n2)CC1 | 16 nM | 6 nM | – |
| Cc1cc(N2CCOCC2)nc(NCCCNc2ccnc3cc(Cl)ccc23)n1 | 16 nM | 6 nM | – |
| Cc1cc(N2CCCCC2)nc(NCCCCNc2ccnc3cc(Cl)ccc23)n1 | 16 nM | 6 nM | – |
| CCN1CCN(c2cc(C)nc(NCCCNc3ccnc4cc(Cl)ccc34)n2)CC1 | 16 nM | 6 nM | – |
| Cc1cc(N2CCOCC2)nc(NCCCCNc2ccnc3cc(Cl)ccc23)n1 | 16 nM | 6 nM | – |
| Clc1ccc2c(NCCCNc3nccc(N4CCCCC4)n3)ccnc2c1 | – | – | Activity [6]: 23%; Activity [7]: 14 nm; Tm [8]: 67.8 °C |
| Cc1cc(N2CCN(C)CC2)nc(NCCCNc2ccnc3cc(Cl)ccc23)n1 | 16 nM | 6 nM | – |
| Clc1ccc2c(NCCNc3nccc(N4CCCCC4)n3)ccnc2c1 | 16 nM | 6 nM | – |
| Cc1cc(N2CCN(C)CC2)nc(NCCCCCCNc2ccnc3cc(Cl)ccc23)n1 | 16 nM | 6 nM | – |
| CN1CCN(c2ccnc(NCCNc3ccnc4cc(Cl)ccc34)n2)CC1 | 16 nM | 6 nM | – |

| Structure (SMILES) | IC50 [1] | IC50 [2] | further results |
| --- | --- | --- | --- |
| Cc1nc(N)nc(N)c1OCCCOc1cc(Cl)c(Cl)cc1Cl | – | – | bioavailability [3]: 83% |
| Clc1ccc2c(NCCNc3nc(Cl)cc(Cl)n3)ccnc2c1 | 16 nM | 6 nM | – |
| Cc1cc(N2CCCCC2)nc(NCCCCCCNc2ccnc3cc(Cl)ccc23)n1 | 16 nM | 6 nM | – |
| Cc1cc(N2CCCCC2)nc(NCCCNc2ccnc3cc(Cl)ccc23)n1 | 16 nM | 6 nM | – |
| Cc1cc(N2CCN(c3ccnc4cc(Cl)ccc34)CC2)nc(NCCCO)n1 | – | – | IC50 [9]: 130 nM; IC50 [10]: 130 nM |
| OCCNc1nccc(NCCNc2ccnc3cc(Cl)ccc23)n1 | – | – | IC50 [9]: 50 nM; IC50 [10]: 50 nM |
| Clc1ccc2c(NCCCNc3nccc(N4CCOCC4)n3)ccnc2c1 | 16 nM | 6 nM | – |
| COc1ccc(Nc2nc(C)cc(N3CCN(c4ccnc5cc(Cl)ccc45)CC3)n2)cc1 | – | – | IC50 [9]: 130 nM; IC50 [10]: 130 nM |
| OCCCNc1nccc(NCCNc2ccnc3cc(Cl)ccc23)n1 | – | – | IC50 [9]: 50 nM; IC50 [10]: 50 nM |
| Clc1ccc2c(NCCNc3ccnc(N4CCCCC4)n3)ccnc2c1 | – | – | IC50 [9]: 50 nM; IC50 [10]: 50 nM |
| Clc1ccc2c(NCCCNc3cc(Cl)nc(Cl)n3)ccnc2c1 | – | – | IC50 [9]: 50 nM; IC50 [10]: 50 nM |
| Cc1cc(N2CCN(C)CC2)nc(NCCNc2ccnc3cc(Cl)ccc23)n1 | 16 nM | 6 nM | – |
| Clc1ccc2c(NCCNc3cc(Cl)nc(Cl)n3)ccnc2c1 | – | – | IC50 [9]: 50 nM; IC50 [10]: 50 nM |
| OCCCCCCNc1nccc(NCCCCNc2ccnc3cc(Cl)ccc23)n1 | – | – | IC50 [9]: 50 nM; IC50 [10]: 50 nM |
| Cc1cc(NCCNc2ccnc3cc(Cl)ccc23)nc(NCCO)n1 | – | – | IC50 [9]: 50 nM; IC50 [10]: 50 nM |
| Cc1cc(N2CCCCC2)nc(NCCNc2ccnc3cc(Cl)ccc23)n1 | 16 nM | 6 nM | – |
| CCc1nc(N)nc(N)c1OCCCOc1ccccc1CCC(=O)O | – | – | EC50 [11]: 56 nM |
| Cc1cc(N2CCOCC2)nc(NCCCCCCNc2ccnc3cc(Cl)ccc23)n1 | 16 nM | 6 nM | – |
| CCN1CCN(c2ccnc(NCCCNc3ccnc4cc(Cl)ccc34)n2)CC1 | 16 nM | 6 nM | – |
